Experimental data from patent publication US20260240815A1, “POTENT TRANSTHYRETIN (TTR) STABILIZATION IN TTR AMYLOIDOSIS PATIENTS RECEIVING ACORAMIDIS” (EIDOS THERAPEUTICS, INC., priority 2023, published 2026).
Values joined by “and” are separate entries in the source; they are usually repeats but may differ in a detail not shown here. Equal values may be shown once.

How the values were obtained:
TTR E92Q = biological target: T1, TTR E92Q (Homo sapiens, UniProt P02766, E112Q); assay: Fluorescent probe exclusion (FPE), E92Q patient serum; assay type: binding
T1 construct: from tissue; host or cells: patient blood plasma (Western blot) / serum (FPE)
Method: (§1) Occupancy of AG10 in the thyroxine binding pocket of tetrameric TTR is determined by the ability of a fluorescent probe (Probe) to covalently bind to free tetrameric TTR binding sites in serum over a 6 hr reaction time. The fluorescent probe only fluoresces upon covalently binding to the ligand binding site of TTR.
(§2) Aliquots of each serum sample are plated in 96 well plates. The fluorescence changes (λex=328 nm and λcm=384 nm) after addition of probe are monitored every 15 min using a fluorescent capable microplate for 6 hr at RT.
(§3) Methods: Two established assays assessed TTR stabilization: fluorescent probe exclusion (FPE; measures binding site occupancy), and Western blot (WB; quantifies tetrameric TTR persistence under conditions of accelerated dissociation). Examples of each assay are provided above. Over 60 individual patient samples representing 18 unique TTRv across a spectrum of intrinsic instability and clinical phenotypes were assayed. Acoramidis was added at […], the target clinical steady-sate trough concentration is 8-10 μM, and compared to Tafamidis added at its clinical peak (26 μM) and trough (16 μM) concentrations reported for its maximal approved dose.

tetrameric TTR V94L = biological target: T2, tetrameric TTR V94L (Homo sapiens, UniProt P02766, V114L); assay: Western blot stabilization of tetrameric TTR, V94L patient sample; assay type: biochemical
T2 construct: from tissue; host or cells: patient blood plasma (Western blot) / serum (FPE)
Method: (§4) Stabilization of the tetramer of TTR by AG10 is determined by comparing the amount of tetrameric TTR protein remaining after acid denaturation for 72 hr to the initial amount of tetrameric TTR protein as determined by densitometric measurement of western blot gels.
(§5) Blood plasma samples from the subject are diluted with acidification buffer (sodium acetate, KCl, EDTA, DTT, pH about 4.0) for both the 0 and 72 hour time point. Time 0 hr samples are directly cross-linked with glutaraldehyde, and then quenched. 72 hr samples are incubated at room temperature for 72 hr and then cross-linked and quenched by the same protocol. All samples are then denatured by adding SDS gel loading buffer and boiled prior to gel loading. Each sample is separated in SDS-PAGE gels and analyzed by immunoblotting using anti-TTR antiserum (Polyclonal Rabbit Anti-Human Prealbumin. DAKO Cat #A0002). The density of all TTR bands are quantified using infrared LICOR imaging system or Fluorescence Imaging system and reported.
as §3

TTR variants (TTRv) = assay: Fluorescent probe exclusion (FPE), mean of all variant patient samples; assay type: binding, human
Method: as §1, §2, §3

TTR = assay: Phase 3 ATTRibute-CM, ex vivo WB and FPE TTR stabilization; assay type: in vivo, human; conditions: patients receiving Acoramidis, month 30
Description: Note: variant=mutant TTR genotype. Participants in ATTRibute-CM had the option for concomitant tafamidis use on top of blinded acoramidis or placebo in the study.
Note: variant=mutant TTR genotype. The Acoramidis+Tafamidis columns show data from patients receiving both compounds.

tetrameric TTR S50R = biological target: T3, tetrameric TTR S50R (Homo sapiens, UniProt P02766, S70R); assay: Western blot stabilization of tetrameric TTR, S50R patient sample; assay type: biochemical
T3 construct: from tissue; host or cells: patient blood plasma (Western blot) / serum (FPE)
Method: as §4, §5, §3

TTR T60A = biological target: T4, TTR T60A (Homo sapiens, UniProt P02766, T80A); assay: Fluorescent probe exclusion (FPE), T60A patient serum; assay type: binding
T4 construct: from tissue; host or cells: patient blood plasma (Western blot) / serum (FPE)
Method: as §1, §2, §3

TTR V122I = biological target: T5, TTR V122I (Homo sapiens, UniProt P02766, V142I); assay: Fluorescent probe exclusion (FPE), V122I patient serum; assay type: binding
T5 construct: from tissue; host or cells: patient blood plasma (Western blot) / serum (FPE)
Method: as §1, §2, §3

TTR (WT) = biological target: T6, TTR (WT) (Homo sapiens, UniProt P02766); assay: Fluorescent probe exclusion (FPE), healthy pooled serum (WT); assay type: binding; conditions: 6 replicates
T6 construct: from tissue; host or cells: serum (wild-type control)
Method: as §1, §2, §3

tetrameric TTR T60A = biological target: T7, tetrameric TTR T60A (Homo sapiens, UniProt P02766, T80A); assay: Western blot stabilization of tetrameric TTR, T60A patient sample; assay type: biochemical
T7 construct: from tissue; host or cells: patient blood plasma (Western blot) / serum (FPE)
Method: as §4, §5, §3

TTR I68L = biological target: T8, TTR I68L (Homo sapiens, UniProt P02766, I88L); assay: Fluorescent probe exclusion (FPE), I68L patient serum; assay type: binding
T8 construct: from tissue; host or cells: patient blood plasma (Western blot) / serum (FPE)
Method: as §1, §2, §3

[1] = system: tetrameric TTR variants (TTRv); assay: Western blot stabilization of tetrameric TTR, mean of all variant patient samples; assay type: biochemical, human
Method: as §4, §5, §3

TTR E42D = biological target: T9, TTR E42D (Homo sapiens, UniProt P02766, E62D); assay: Fluorescent probe exclusion (FPE), E42D patient serum; assay type: binding
T9 construct: from tissue; host or cells: patient blood plasma (Western blot) / serum (FPE)
Method: as §1, §2, §3

TTR G6S = biological target: T10, TTR G6S (Homo sapiens, UniProt P02766, G26S); assay: Fluorescent probe exclusion (FPE), G6S patient serum; assay type: binding
T10 construct: from tissue; host or cells: patient blood plasma (Western blot) / serum (FPE)
Method: as §1, §2, §3

tetrameric TTR A25S = biological target: T11, tetrameric TTR A25S (Homo sapiens, UniProt P02766, A45S); assay: Western blot stabilization of tetrameric TTR, A25S patient sample; assay type: biochemical; conditions: N=1, 16 μM
T11 construct: from tissue; host or cells: patient blood plasma
Method: as §4, §5, §3

`O=C(O)c1ccc2nc(-c3cc(Cl)cc(Cl)c3)oc2c1` [Tafamidis, 2-(3,5-dichlorophenyl)-1,3-benzoxazole-6-carboxylic acid] was tested, and the “FPE Mean % Stabilization (SD)” value (TTR E92Q; N=1, 16 μM) was 66.97%, the “FPE Mean % Stabilization (SD)” value (TTR E92Q; N=1, 26 μM) was 75.41% and the “WB Mean % Stabilization (SD)” value (tetrameric TTR V94L; N=1, 16 μM) was 64.19%. The “WB Mean % Stabilization (SD)” value (tetrameric TTR V94L; N=1, 26 μM) was 67.37%, the “FPE Mean % Stabilization (SD)” value (TTR variants (TTRv); N=41, 16 μM (clinical trough)) was 71±14% and 71.26 (13.58) % and the “FPE Mean % Stabilization (SD)” value (TTR variants (TTRv); N=41, 26 μM (clinical peak)) was 87±14% and 86.54 (13.51) %. The “effect of added Tafamidis on TTR stabilization” value (TTR) was “does not increase TTR stabilization”, the “WB Mean % Stabilization (SD)” value (tetrameric TTR S50R; N=1, 16 μM) was 21.00% and the “WB Mean % Stabilization (SD)” value (tetrameric TTR S50R; N=1, 26 μM) was 31.00%. The “FPE Mean % Stabilization (SD)” value (TTR T60A; N=4, 16 μM) was 68.10 (8.92) %, the “FPE Mean % Stabilization (SD)” value (TTR T60A; N=4, 26 μM) was 82.32 (6.05) % and the “FPE Mean % Stabilization (SD)” value (TTR V122I; N=24, 16 μM) was 76.54 (14.83) %. For the same molecule, the “FPE Mean % Stabilization (SD)” value (TTR V122I; N=24, 26 μM) was 91.62 (15.18) %, the “FPE Mean % Stabilization (SD)” value (TTR (WT); 16 μM) was 48.61 (6.43) % and the “FPE Mean % Stabilization (SD)” value (TTR (WT); 26 μM) was 64.69 (5.52) %. For the same molecule, the “WB Mean % Stabilization (SD)” value (tetrameric TTR T60A; N=3, 16 μM) was 33.44 (1.60) %, the “WB Mean % Stabilization (SD)” value (tetrameric TTR T60A; N=3, 26 μM) was 49.64 (8.33) % and the “FPE Mean % Stabilization (SD)” value (TTR I68L; N=5, 16 μM) was 63.95 (6.73) %. For the same molecule, the “FPE Mean % Stabilization (SD)” value (TTR I68L; N=5, 26 μM) was 79.4 (5.28) %, the “WB Mean % Stabilization (SD)” value ([1]; N=53, 16 μM (clinical trough)) was 36±13% and 36.34 (12.88) % and the “WB Mean % Stabilization (SD)” value ([1]; N=53, 26 μM (clinical peak)) was 49±14% and 49.10 (13.89) %. The “FPE Mean % Stabilization (SD)” value (TTR E42D; N=1, 16 μM) was 55.28%, the “FPE Mean % Stabilization (SD)” value (TTR E42D; N=1, 26 μM) was 80.99% and the “FPE Mean % Stabilization (SD)” value (TTR G6S; N=2, 16 μM) was 61.96 (6.12) %. The “FPE Mean % Stabilization (SD)” value (TTR G6S; N=2, 26 μM) was 80.02 (5.99) % and the “WB Mean % Stabilization (SD)” value (tetrameric TTR A25S) was 46.47%.
